# Columns and labels:
# [1] = target: T1, 5-hydroxytryptamine receptor 1A (Homo sapiens, UniProt P08908); test: biochemical
# T1 sequence (P08908 whole entry): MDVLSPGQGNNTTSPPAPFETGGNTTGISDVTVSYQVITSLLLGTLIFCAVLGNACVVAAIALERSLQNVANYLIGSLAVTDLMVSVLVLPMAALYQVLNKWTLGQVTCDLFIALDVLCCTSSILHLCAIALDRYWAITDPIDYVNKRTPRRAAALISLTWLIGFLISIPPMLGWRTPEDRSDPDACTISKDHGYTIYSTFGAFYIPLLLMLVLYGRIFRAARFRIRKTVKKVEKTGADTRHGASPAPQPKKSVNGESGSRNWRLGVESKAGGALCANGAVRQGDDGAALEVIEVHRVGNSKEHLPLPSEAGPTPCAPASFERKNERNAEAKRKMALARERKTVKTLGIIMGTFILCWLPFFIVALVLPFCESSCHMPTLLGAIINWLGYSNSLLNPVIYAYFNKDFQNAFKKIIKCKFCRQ
# Description: Displacement of [3H]8-OH-DPAT from human cloned 5HT1A receptor expressed in HEK293 EBNA cells after 1 hr by liquid scintillation counting
# [2] = target: T2, Alpha-1A adrenergic receptor (Homo sapiens, UniProt P35348)
# T2 sequence (P35348 whole entry): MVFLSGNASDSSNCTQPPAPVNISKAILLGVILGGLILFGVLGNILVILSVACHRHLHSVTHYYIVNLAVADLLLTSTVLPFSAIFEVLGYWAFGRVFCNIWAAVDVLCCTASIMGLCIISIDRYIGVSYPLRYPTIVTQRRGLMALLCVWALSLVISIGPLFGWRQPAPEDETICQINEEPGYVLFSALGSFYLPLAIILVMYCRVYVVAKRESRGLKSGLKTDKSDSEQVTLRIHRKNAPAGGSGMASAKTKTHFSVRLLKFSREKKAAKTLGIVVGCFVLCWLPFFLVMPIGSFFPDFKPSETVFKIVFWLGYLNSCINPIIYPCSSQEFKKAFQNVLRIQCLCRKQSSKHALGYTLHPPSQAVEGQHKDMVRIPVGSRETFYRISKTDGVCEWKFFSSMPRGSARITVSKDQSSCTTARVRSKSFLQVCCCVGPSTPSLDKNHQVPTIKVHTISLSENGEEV
# Description: Inhibition of adrenergic alpha1A receptor
# [3] = target: 5-hydroxytryptamine receptor 7 (Homo sapiens, UniProt P34969)
# Sequence of 5-hydroxytryptamine receptor 7 (P34969 whole entry): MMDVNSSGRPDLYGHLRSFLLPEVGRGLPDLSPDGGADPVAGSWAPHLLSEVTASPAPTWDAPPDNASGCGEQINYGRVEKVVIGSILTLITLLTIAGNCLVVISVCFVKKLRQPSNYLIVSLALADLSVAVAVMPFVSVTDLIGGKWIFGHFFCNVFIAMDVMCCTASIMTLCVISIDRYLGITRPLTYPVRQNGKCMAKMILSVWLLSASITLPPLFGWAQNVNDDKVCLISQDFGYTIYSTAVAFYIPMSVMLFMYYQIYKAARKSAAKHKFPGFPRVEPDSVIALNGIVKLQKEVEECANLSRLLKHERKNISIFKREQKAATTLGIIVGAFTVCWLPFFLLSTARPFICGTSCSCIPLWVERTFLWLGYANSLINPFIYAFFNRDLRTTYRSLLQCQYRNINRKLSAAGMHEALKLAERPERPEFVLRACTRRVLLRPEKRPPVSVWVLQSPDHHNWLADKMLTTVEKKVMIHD
# D(4) dopamine receptor = target: T3, D(4) dopamine receptor (Homo sapiens, UniProt P21917)
# T3 sequence (P21917 whole entry): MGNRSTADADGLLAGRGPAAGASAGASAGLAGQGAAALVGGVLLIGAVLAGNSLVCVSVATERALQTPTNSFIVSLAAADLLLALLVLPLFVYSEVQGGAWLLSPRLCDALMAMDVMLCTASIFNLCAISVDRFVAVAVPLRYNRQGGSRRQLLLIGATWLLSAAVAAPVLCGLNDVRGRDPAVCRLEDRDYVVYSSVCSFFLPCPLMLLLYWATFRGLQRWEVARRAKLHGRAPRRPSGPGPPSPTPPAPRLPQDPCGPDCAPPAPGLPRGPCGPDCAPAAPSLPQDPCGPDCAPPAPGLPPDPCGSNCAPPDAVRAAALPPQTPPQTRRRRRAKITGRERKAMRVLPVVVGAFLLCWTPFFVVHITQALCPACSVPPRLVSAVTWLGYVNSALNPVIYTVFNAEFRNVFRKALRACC
# Description: Inhibition of dopamine D4 receptor
# [4] = target: T4, Alpha-1D adrenergic receptor (Homo sapiens, UniProt P25100)
# T4 sequence (P25100 whole entry): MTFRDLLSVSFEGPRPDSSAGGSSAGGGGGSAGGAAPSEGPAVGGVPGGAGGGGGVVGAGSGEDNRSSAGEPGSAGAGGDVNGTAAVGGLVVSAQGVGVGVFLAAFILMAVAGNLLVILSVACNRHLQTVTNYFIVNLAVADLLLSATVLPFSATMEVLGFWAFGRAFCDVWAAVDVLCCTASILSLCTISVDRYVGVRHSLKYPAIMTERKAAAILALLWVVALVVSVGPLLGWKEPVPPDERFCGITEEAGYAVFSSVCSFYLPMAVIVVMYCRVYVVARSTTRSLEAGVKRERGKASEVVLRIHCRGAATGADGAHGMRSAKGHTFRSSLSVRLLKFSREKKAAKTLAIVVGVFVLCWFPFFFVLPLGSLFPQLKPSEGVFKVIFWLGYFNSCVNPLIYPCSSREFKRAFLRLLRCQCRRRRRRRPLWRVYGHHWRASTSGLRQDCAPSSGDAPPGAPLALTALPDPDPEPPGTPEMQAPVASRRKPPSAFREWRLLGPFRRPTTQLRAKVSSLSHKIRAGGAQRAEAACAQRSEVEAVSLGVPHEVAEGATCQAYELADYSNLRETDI
# Description: Inhibition of adrenergic Alpha-1D receptor
# [5] = target: 5-hydroxytryptamine receptor 1B (Homo sapiens, UniProt P28222)
# Sequence of 5-hydroxytryptamine receptor 1B (P28222 whole entry): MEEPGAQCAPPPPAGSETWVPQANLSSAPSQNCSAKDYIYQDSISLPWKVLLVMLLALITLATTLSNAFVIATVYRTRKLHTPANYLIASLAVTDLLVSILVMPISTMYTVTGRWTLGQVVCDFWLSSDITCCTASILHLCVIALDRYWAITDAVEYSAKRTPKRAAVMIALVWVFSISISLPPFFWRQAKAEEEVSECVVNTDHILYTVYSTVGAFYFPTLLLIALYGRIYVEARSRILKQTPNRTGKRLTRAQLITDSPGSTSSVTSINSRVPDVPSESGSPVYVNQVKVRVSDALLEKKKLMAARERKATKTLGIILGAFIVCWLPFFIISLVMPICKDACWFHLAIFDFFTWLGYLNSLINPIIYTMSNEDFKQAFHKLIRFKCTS
# physchem = details: octanol/water, pH 7.4
# [6] = target: T1, 5-hydroxytryptamine receptor 1A
# [7] = target: T5, Alpha-1B adrenergic receptor (Homo sapiens, UniProt P35368)
# T5 sequence (P35368 whole entry): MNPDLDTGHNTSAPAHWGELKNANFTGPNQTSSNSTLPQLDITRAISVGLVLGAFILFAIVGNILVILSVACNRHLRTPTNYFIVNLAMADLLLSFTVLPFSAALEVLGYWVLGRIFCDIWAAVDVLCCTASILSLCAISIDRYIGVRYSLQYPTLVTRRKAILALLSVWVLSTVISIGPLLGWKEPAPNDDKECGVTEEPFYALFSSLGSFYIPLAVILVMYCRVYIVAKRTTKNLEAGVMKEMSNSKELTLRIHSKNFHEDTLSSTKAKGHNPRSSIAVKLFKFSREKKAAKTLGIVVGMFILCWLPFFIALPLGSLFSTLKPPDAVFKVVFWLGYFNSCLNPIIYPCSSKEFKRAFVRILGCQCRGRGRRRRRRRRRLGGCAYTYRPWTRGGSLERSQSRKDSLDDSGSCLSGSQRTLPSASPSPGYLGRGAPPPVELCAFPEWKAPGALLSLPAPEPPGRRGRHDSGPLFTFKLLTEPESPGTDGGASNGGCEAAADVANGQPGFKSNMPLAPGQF
# Description: Inhibition of adrenergic Alpha-1B receptor
# Heart [8] = test: Biodistribution in Wistar rat heart at 7 MBq, iv after 45 mins; format: ADME, organism-based; details: in vivo, 0.75 h
# Lung [9] = test: Biodistribution in non-labeled WAY-100635 ptretreated Wistar rat lung at 7 MBq, iv after 45 mins; format: ADME, organism-based; details: in vivo, 0.75 h
# Liver [10] = test: Biodistribution in non-labeled WAY-100635 ptretreated Wistar rat liver at 7 MBq, iv after 45 mins; format: ADME, organism-based; details: in vivo, 0.75 h
# Nucleic Acid [11] = test: Ratio of drug level in cerebellum to frontal cortex in Wistar rat at 7 MBq, iv after 45 mins; format: ADME, organism-based; details: in vivo, 0.75 h
# Striatum [12] = test: Biodistribution in non-labeled WAY-100635 ptretreated Wistar rat striatum at 7 MBq, iv after 45 mins; format: ADME, organism-based; details: in vivo, 0.75 h
# Hippocampus [13] = test: Biodistribution in non-labeled WAY-100635 ptretreated Wistar rat hippocampus at 7 MBq, iv after 45 mins; format: ADME, organism-based; details: in vivo, 0.75 h
# Blood [14] = test: Biodistribution in Wistar rat blood at 7 MBq, iv after 45 mins; format: ADME, organism-based; details: in vivo, 0.75 h
# Nucleic Acid [15] = test: Ratio of drug level in cerebellum to hippocampus in Wistar rat at 7 MBq, iv after 45 mins; format: ADME, organism-based; details: in vivo, 0.75 h
# Occipital cortex [16] = test: Biodistribution in non-labeled WAY-100635 ptretreated Wistar rat occipital cortex at 7 MBq, iv after 45 mins; format: ADME, organism-based; details: in vivo, 0.75 h
# Liver [17] = test: Biodistribution in Wistar rat liver at 7 MBq, iv after 45 mins; format: ADME, organism-based; details: in vivo, 0.75 h
# Kidney [18] = test: Biodistribution in non-labeled WAY-100635 ptretreated Wistar rat kidney at 7 MBq, iv after 45 mins; format: ADME, organism-based; details: in vivo, 0.75 h
# Occipital cortex [19] = test: Biodistribution in Wistar rat occipital cortex at 7 MBq, iv after 45 mins; format: ADME, organism-based; details: in vivo, 0.75 h
# Nucleic Acid [20] = test: Ratio of drug level in cerebellum to striatum in Wistar rat at 7 MBq, iv after 45 mins; format: ADME, organism-based; details: in vivo, 0.75 h
# Rattus norvegicus [21] = test: Biodistribution in Wistar rat rest cortex at 7 MBq, iv after 45 mins; format: ADME, organism-based; details: in vivo, 0.75 h
# Heart [22] = test: Biodistribution in non-labeled WAY-100635 ptretreated Wistar rat heart at 7 MBq, iv after 45 mins; format: ADME, organism-based; details: in vivo, 0.75 h
# Lung [23] = test: Biodistribution in Wistar rat lung at 7 MBq, iv after 45 mins; format: ADME, organism-based; details: in vivo, 0.75 h
# Thyroid gland = test: Biodistribution in non-labeled WAY-100635 ptretreated Wistar rat thyroid assessed per organ at 7 MBq, iv after 45 mins; format: ADME, organism-based; details: in vivo, 0.75 h
# Rattus norvegicus [24] = test: Biodistribution in Wistar rat frontal cortex at 7 MBq, iv after 45 mins; format: ADME, organism-based; details: in vivo, 0.75 h
# Kidney [25] = test: Biodistribution in Wistar rat kidney at 7 MBq, iv after 45 mins; format: ADME, organism-based; details: in vivo, 0.75 h
# Rattus norvegicus [26] = test: Biodistribution in non-labeled WAY-100635 ptretreated Wistar rat rest cortex at 7 MBq, iv after 45 mins; format: ADME, organism-based; details: in vivo, 0.75 h
# Striatum [27] = test: Biodistribution in Wistar rat striatum at 7 MBq, iv after 45 mins; format: ADME, organism-based; details: in vivo, 0.75 h
# Blood [28] = test: Biodistribution in non-labeled WAY-100635 ptretreated Wistar rat blood at 7 MBq, iv after 45 mins; format: ADME, organism-based; details: in vivo, 0.75 h
# Cerebellum [29] = test: Biodistribution in Wistar rat cerebellum at 7 MBq, iv after 45 mins; format: ADME, organism-based; details: in vivo, 0.75 h
# Hippocampus [30] = test: Biodistribution in Wistar rat hippocampus at 7 MBq, iv after 45 mins; format: ADME, organism-based; details: in vivo, 0.75 h
# Nucleic Acid [31] = test: Ratio of drug level in cerebellum to occipital cortex in Wistar rat at 7 MBq, iv after 45 mins; format: ADME, organism-based; details: in vivo, 0.75 h
# Rattus norvegicus [32] = test: Biodistribution in non-labeled WAY-100635 ptretreated Wistar rat frontal cortex at 7 MBq, iv after 45 mins; format: ADME, organism-based; details: in vivo, 0.75 h
# Cerebellum [33] = test: Biodistribution in non-labeled WAY-100635 ptretreated Wistar rat cerebellum at 7 MBq, iv after 45 mins; format: ADME, organism-based; details: in vivo, 0.75 h
smiles,measurement,setting,value
COc1ccccc1N1CCN(CCN(C(=O)C23CC4CC(CC(I)(C4)C2)C3)c2ccccn2)CC1,IC50,[1],5.04 nM
same,Ki,[1],2.15 nM
COc1ccccc1N1CCN(CCN(C(=O)C23C4C5C2C2C3C4C52I)c2ccccn2)CC1 (stereo unspecified),Ki,[2],78 nM
same,Ki,[3],161 nM
same,IC50,[1],2.59 nM
same,Ki,[1],1.11 nM
same,Ki,D(4) dopamine receptor,329 nM
same,Ki,[4],98 nM
same,Ki,[5],121 nM
same,logD,physchem,4.14
same,Ki,[6],2.2 nM
same,Ki,[7],185 nM
COc1ccccc1N1CCN(CCN(C(=O)C23CCC(I)(CC2)CC3)c2ccccn2)CC1,IC50,[1],2.61 nM
same,Ki,[1],1.11 nM
COc1ccccc1N1CCN(CCN(C(=O)C23CCC(I)(CC2)C3)c2ccccn2)CC1,IC50,[1],2.02 nM
same,Ki,[1],0.87 nM
O=C(N(CCN1CCN(c2ccccc2O)CC1)c1ccccn1)C12CC3CC(C1)C(I)C(C3)C2 (stereo unspecified),IC50,[1],3.95 nM
same,Ki,[1],1.68 nM
O=C(N(CCN1CCN(c2ccccc2O)CC1)c1ccccn1)C12C3C4C1C1C2C3C41I (stereo unspecified),Ki,[2],176 nM
same,Ki,[3],50 nM
same,IC50,[1],1.5 nM
same,Ki,[1],0.64 nM
same,Ki,D(4) dopamine receptor,890 nM
same,Ki,[4],181 nM
same,Ki,[5],272 nM
same,logD,physchem,4.03
same,Ki,[6],1.4 nM
same,Ki,[7],25 nM
O=C(N(CCN1CCN(c2ccccc2O)CC1)c1ccccn1)C12CCC(I)(CC1)CC2,IC50,[1],4.57 nM
same,Ki,[1],1.95 nM
O=C(N(CCN1CCN(c2ccccc2O)CC1)c1ccccn1)C12CCC(I)(CC1)C2,IC50,[1],1.19 nM
same,Ki,[1],0.47 nM
COc1ccccc1N1CCN(CCN(C(=O)C23C4C5C2C2C3C4C52[123I])c2ccccn2)CC1 (stereo unspecified),Drug uptake,Heart [8],0.16 % ID/g
same,Drug uptake,Lung [9],0.31 % ID/g
same,Drug uptake,Liver [10],2.77 % ID/g
same,Ratio,Nucleic Acid [11],1.16
same,Drug uptake,Striatum [12],0.04 % ID/g
same,Drug uptake,Hippocampus [13],0.06 % ID/g
same,Drug uptake,Blood [14],0.24 % ID/g
same,Ratio,Nucleic Acid [15],2.51
same,Drug uptake,Occipital cortex [16],0.05 % ID/g
same,Drug uptake,Liver [17],2.34 % ID/g
same,Drug uptake,Kidney [18],1.32 % ID/g
same,Drug uptake,Occipital cortex [19],0.06 % ID/g
same,Ratio,Nucleic Acid [20],0.91
same,Drug uptake,Rattus norvegicus [21],0.05 % ID/g
same,Drug uptake,Heart [22],0.2 % ID/g
same,Drug uptake,Lung [23],0.28 % ID/g
same,Drug uptake,Thyroid gland,0.01 %ID
same,Drug uptake,Rattus norvegicus [24],0.06 %ID
same,Drug uptake,Kidney [25],1.37 % ID/g
same,Drug uptake,Rattus norvegicus [26],0.04 % ID/g
same,Drug uptake,Striatum [27],0.04 % ID/g
same,Drug uptake,Blood [28],0.33 % ID/g
same,Drug uptake,Cerebellum [29],0.05 % ID/g
same,Drug uptake,Hippocampus [30],0.1 % ID/g
same,Ratio,Nucleic Acid [31],1.21
same,Drug uptake,Rattus norvegicus [32],0.05 % ID/g
same,Drug uptake,Cerebellum [33],0.05 % ID/g
O=C(C1CCCCC1)N(CCN1CCN(c2ccccc2O)CC1)c1ccccn1,IC50,[1],0.77 nM
same,Ki,[1],0.33 nM

# — ChEMBL document CHEMBL1772973, “Design, synthesis, radiolabeling, and in vitro and in vivo evaluation of bridgehead iodinated analogues of N-{2-[4-(2-methoxyphenyl)piperazin-1-yl]ethyl}-N-(pyridin-2-yl)cyclohexanecarboxamide (WAY-100635) as potential SPECT ligands for the 5-HT1A receptor” (J Med Chem, 2011)
